Measurements taken from patent publication US20250243180A1, “TARGETED PROTEIN DEGRADATION” (Monte Rosa Therapeutics AG, priority 2023, published 2025).
Read-outs that look alike come from different tables or passages of the source.

Legend:
IL-1β release = IL-1β release in human monocyte-derived macrophages, LPS/nigericin stimulation; format: cell-based; conditions: Macrophage, 24 h pre-treatment, LPS 3 h then 10 μM nigericin 1 h, read-out: IL-1b IC50 (NIG)
Procedure: (§1) Human monocytes were enriched and isolated from a buffy coat of healthy donor whole blood with a RosetteSep™ Human Monocyte Enrichment Cocktail (Cat.No. 15068, StemCell) and Ficoll-Plaque PLUS (Cat.No. H8889, Sigma). Monocytes were differentiated into macrophages by treatment with 100 ng/mL M-CSF for 6 days at 37° C., 5% CO2. Differentiated macrophages were seeded overnight (50,000 cells/well) in 100 µL of medium in a 96-well, white-bottom plate at 37° C., 5% CO2. Cells were treated with a concentration range of MGD for 24 hours prior to stimulation with nigericin. Macrophages were primed with […] LPS for 3 h followed by 1 h stimulation with 10 μM nigericin. Media of stimulated macrophages were collected and assayed for caspase 1 activity directly (Promega G9951), according to manufacturer's instructions. For IL-1β release assay, media of stimulated macrophages were collected and stored at −20° C., then thawed at 4° C. before assaying for IL-1β activity (Promega W6011), according to manufacturer's instructions.

Caspase-1 activity [1] = test: Caspase-1 activity in human monocyte-derived macrophages, LPS/nigericin stimulation; format: cell-based; conditions: Macrophage, 24 h pre-treatment, LPS 3 h then 10 μM nigericin 1 h, read-out: Caspase-1 IC50 (NIG)
Procedure: as §1

NEK7 = NEK7 (Homo sapiens (Human), UniProt Q8TDX7+Q96SW2); test: NEK7 NanoBiT degradation assay in Cal51 NEK7 NanoBiT cell line; format: cell-based; conditions: Cal51 NEK7 NanoBiT cells, 24 hours; for Dmax: CAL-51
Procedure, shortened: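 EC50 comes from a 4-parameter fit of control-normalized luminescence. The luminescence reports HiBiT-NEK7 (endogenous knock-in) complemented by stably expressed LgBiT in Cal51 cells after 24 h compound exposure at 37 °C. Final concentrations ran 1 μM to 0.05 nM, with Endurazine substrate present in the medium throughout.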

CRBN-DDB1 = CRBN-DDB1 (Homo sapiens (Human), UniProt Q96SW2); test: Compound binding to CRBN by HTRF assay
Procedure, shortened: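 Ki calculated via Cheng-Prusoff from geometric-mean EC50 values, after normalizing the HTRF ratio to lenalidomide (active) and DMSO (neutral) controls. Compounds (11 points, 1:3 steps) incubated 30 min at ambient temperature with CRBN-DDB1 2.5 nM, anti-His Tb cryptate and Cy5-thalidomide tracer 100 nM.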

[2] = test system: New Zealand White rabbits, MSU crystal gout model; test: In vivo rabbit gout model (intra-articular MSU): joint swelling and CD31 staining; conditions: daily prophylactic treatment
Procedure: MSU crystals were prepared by dissolving uric acid (Aladdin, cat #U105582) in boiling water (1 g in 200 mL with 6 mL of 1 N NaOH). PH value was adjusted to 7.2 by HCl. The solution was stirred and cooled to room temperature and stored at 4° C. overnight. The precipitate was filtered with filter paper and dried under low heat to obtain MSU crystals. New Zealand White rabbits received an intra-articular injection of 1 mL of MSU crystals (50 mg/mL) into both knees (MSU group) or PBS (as vehicle, control group). n=10 for MSU groups; n=6 for PBS group.
For immunohistochemistry, bone sections were stained with anti-CD31 (Abcam #ab9498) diluted at 1:500. The nuclei were stained with hematoxylin. Slides were scanned using LEICA Aperio GT450 at 400× magnification. The number of positive blood vessels were counted blindly.
(a) To determine NEK7 degradation, spleens and peripheral blood mononuclear cells (PBMC) were analyzed by JESS for NEK7 and normalized to α-Tubulin from five representative animals. (b) The degree of joint swelling was determined by caliper measurements at the indicated time points. (c) Rabbit bone tissue sections were stained and quantified for anti-CD31 immunohistochemistry. Results expressed as mean±SEM. Statistical analysis was performed using two-way ANOVA. The difference was considered significant when p<0.05.

Caspase-1 activity [3] = test: Caspase-1 activity in human monocyte-derived macrophages, LPS/MSU stimulation; format: cell-based; conditions: 24 h pre-treatment, LPS + MSU 6 h, eight donors
Procedure: (§2) Human monocytes were enriched and isolated from a buffy coat of whole blood with a RosetteSep™ Human Monocyte Enrichment Cocktail (Cat.No. 15068, StemCell) and Ficoll-Plaque PLUS (Cat.No. H8889, Sigma). Monocytes were differentiated into macrophages by treatment with 100 ng/mL M-CSF for 6 days at 37° C., 5% CO2. Differentiated macrophages were seeded overnight (50,000 cells/well) in 100 μL of medium in a 96-well white-bottom plate at 37° C., 5% CO2. Cells were treated with a concentration range of MGD or the NLRP3 inhibitor selnoflast (Cat.No. HY-132831, MedChemExpress) for 24 h prior to stimulation with monosodium urate crystals (MSU). Macrophages were stimulated with […] lipopolysaccharide (LPS) and 0.2 mg/mL MSU for 6 h. Medium of stimulated macrophages were collected and assayed for caspase-1 activity directly (Promega G9951) as well as IL-1β (Promega W6010), according to manufacturer's instructions.
(§3) (a, b) Human monocyte-derived macrophages pre-treated with a dose-response of Compound 14 or selnoflast (NLRP3 inhibitor) for 24 h and stimulated with a combination of lipopolysaccharide (LPS) and monosodium urate crystals (MSU) for 6 h prior to supernatant collection. Monocytes were isolated from eight human donors. Caspase-1 (a) and IL-1β (b) in the supernatant are measured and data are expressed as percentage relative to mean values of DMSO conditions for each donor (technical triplicates). Means of eight donors are plotted and analyzed using a four-parameter logistic regression model.

IL-1β = IL-1β in human monocyte-derived macrophages, LPS/MSU stimulation; format: cell-based; conditions: 24 h pre-treatment, LPS + MSU 6 h, eight donors
Procedure: as §2, §3

[4] = NEK7 degradation, read-out: NanoBiT Dmax
[5] = NEK7 degradation, read-out: NanoBiT DC50

CRBN-DDB1, sequence (Q96SW2 whole entry): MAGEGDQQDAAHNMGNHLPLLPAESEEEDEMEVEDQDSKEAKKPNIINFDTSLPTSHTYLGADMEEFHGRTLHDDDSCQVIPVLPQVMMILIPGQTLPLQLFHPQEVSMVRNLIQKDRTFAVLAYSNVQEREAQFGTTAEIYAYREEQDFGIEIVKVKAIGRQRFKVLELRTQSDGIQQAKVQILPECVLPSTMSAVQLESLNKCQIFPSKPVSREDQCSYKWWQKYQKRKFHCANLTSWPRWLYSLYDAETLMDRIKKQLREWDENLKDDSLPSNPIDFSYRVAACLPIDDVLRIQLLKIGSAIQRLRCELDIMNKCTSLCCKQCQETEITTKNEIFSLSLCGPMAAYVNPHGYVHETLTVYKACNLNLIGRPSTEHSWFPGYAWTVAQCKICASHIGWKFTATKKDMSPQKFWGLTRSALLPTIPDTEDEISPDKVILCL
CRBN-DDB1, sequence (Q16531 whole entry partner): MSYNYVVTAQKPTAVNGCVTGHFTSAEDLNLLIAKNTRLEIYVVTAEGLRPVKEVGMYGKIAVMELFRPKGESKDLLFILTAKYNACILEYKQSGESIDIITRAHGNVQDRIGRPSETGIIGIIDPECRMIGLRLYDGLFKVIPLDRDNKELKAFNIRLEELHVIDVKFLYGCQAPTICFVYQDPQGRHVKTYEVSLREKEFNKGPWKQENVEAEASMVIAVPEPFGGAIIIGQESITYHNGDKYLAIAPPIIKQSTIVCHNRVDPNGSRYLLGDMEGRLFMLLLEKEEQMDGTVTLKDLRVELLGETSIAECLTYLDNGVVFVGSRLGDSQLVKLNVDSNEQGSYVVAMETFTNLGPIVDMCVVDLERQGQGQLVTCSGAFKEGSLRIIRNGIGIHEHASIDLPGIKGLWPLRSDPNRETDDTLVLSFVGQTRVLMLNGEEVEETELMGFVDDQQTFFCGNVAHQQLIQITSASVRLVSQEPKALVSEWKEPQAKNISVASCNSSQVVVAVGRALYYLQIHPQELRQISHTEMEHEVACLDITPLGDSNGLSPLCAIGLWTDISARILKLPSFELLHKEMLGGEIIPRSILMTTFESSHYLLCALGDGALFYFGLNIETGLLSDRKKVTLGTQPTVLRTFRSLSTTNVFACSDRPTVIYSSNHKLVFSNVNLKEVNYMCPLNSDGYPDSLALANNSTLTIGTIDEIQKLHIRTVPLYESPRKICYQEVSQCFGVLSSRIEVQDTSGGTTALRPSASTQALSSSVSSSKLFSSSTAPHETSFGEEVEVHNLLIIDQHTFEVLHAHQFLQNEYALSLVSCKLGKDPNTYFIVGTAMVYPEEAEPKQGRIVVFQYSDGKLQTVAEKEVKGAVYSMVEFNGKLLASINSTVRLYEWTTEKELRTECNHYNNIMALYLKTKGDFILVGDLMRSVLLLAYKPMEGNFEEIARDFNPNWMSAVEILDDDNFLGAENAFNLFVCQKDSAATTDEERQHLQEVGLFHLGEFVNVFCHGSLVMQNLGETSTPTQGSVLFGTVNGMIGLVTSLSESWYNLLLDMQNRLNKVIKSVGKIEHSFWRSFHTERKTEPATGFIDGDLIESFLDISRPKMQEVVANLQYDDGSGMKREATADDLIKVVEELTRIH
NEK7, sequence (Q8TDX7 whole entry): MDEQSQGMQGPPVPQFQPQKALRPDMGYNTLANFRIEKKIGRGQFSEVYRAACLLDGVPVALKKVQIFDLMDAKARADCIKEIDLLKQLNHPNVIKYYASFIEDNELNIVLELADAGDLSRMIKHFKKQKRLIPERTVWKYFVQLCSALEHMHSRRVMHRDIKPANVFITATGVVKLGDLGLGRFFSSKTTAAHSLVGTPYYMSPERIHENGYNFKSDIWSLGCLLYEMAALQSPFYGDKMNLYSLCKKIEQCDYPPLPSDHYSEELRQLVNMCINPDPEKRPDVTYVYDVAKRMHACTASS
NEK7, sequence (Q96SW2 whole entry): as the sequence (Q96SW2 whole entry) above
NEK7, sequence (Q16531 2-1140 partner): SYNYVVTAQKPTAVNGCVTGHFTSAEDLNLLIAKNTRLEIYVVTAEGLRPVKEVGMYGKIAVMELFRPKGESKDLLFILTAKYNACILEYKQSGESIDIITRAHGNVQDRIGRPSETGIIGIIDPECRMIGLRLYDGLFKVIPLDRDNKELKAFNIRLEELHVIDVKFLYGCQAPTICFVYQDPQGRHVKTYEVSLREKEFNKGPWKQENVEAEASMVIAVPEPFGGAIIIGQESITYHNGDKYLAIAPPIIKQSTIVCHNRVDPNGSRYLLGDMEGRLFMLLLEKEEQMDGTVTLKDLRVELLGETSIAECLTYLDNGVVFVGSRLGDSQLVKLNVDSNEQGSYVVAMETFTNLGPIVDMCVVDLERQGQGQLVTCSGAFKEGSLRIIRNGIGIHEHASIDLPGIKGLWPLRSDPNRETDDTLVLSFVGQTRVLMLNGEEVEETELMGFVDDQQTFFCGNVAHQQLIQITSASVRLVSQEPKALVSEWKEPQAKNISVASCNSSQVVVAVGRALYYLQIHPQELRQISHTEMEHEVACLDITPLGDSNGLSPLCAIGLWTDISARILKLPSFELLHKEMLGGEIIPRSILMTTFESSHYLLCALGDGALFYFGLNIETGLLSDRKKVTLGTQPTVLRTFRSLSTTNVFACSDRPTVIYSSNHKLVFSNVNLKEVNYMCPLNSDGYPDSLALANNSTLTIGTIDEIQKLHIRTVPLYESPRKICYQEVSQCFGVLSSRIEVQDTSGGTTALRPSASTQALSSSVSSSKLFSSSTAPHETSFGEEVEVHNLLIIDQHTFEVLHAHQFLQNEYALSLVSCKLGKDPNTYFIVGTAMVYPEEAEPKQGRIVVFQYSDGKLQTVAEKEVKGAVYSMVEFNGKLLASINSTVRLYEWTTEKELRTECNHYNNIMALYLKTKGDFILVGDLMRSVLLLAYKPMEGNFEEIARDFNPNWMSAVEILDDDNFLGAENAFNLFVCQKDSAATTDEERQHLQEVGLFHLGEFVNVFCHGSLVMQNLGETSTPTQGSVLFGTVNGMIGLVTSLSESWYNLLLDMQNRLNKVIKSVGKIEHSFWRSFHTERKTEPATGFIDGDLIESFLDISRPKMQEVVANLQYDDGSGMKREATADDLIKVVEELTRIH

Cc1cc(C(C)(C)C(=O)NCc2cc(Cl)c(C3CCC(=O)NC3=O)c(Cl)c2)ccn1 (stereo not drawn) [Compound 95]
IC50 (IL-1β release): 1.21 nM
IC50 (Caspase-1 activity [1]): 0.82 nM
Dmax (NEK7; read-out: NEK7 NanoBiT Dmax): 92%
Dmax (NEK7; [4]): > 75%
DC50 (NEK7; read-out: NEK7 NanoBiT DC50): 6 nM
DC50 (NEK7; [5]): ≤ 100 nM
EC50 (CRBN-DDB1): 100 nM
EC50 (CRBN-DDB1; HTRF class, Cereblon binding): ≤ 100 nM

CC(C)(C(=O)NCc1cc(Cl)c(C2CCC(=O)NC2=O)c(Cl)c1)c1ccc(F)cc1 (stereo not drawn) [Compound 96]
IC50 (IL-1β release): 0.2 nM
IC50 (Caspase-1 activity [1]): 0.13 nM
Dmax (NEK7; read-out: NEK7 NanoBiT Dmax): 97%
Dmax (NEK7; [4]): > 75%
DC50 (NEK7; read-out: NEK7 NanoBiT DC50): 1 nM
DC50 (NEK7; [5]): ≤ 100 nM
EC50 (CRBN-DDB1): 80 nM
EC50 (CRBN-DDB1; HTRF class, Cereblon binding): ≤ 100 nM

CC(C)(C(=O)NCc1cc(Cl)c(C2CCC(=O)NC2=O)c(Cl)c1)c1ccnc(C(F)(F)F)c1 (stereo not drawn) [Compound 97]
IC50 (IL-1β release): 5.23 nM
IC50 (Caspase-1 activity [1]): 5.84 nM
Dmax (NEK7; read-out: NEK7 NanoBiT Dmax): 76%
Dmax (NEK7; [4]): > 75%
DC50 (NEK7; read-out: NEK7 NanoBiT DC50): 50 nM
DC50 (NEK7; [5]): ≤ 100 nM
EC50 (CRBN-DDB1): 170 nM
EC50 (CRBN-DDB1; HTRF class, Cereblon binding): 100 to 1000 nM

CC(C)(C(=O)NCc1cc(Cl)c(C2CCC(=O)NC2=O)c(Cl)c1)c1ccncc1 (stereo not drawn) [Compound 108]
IC50 (IL-1β release): 0.41 nM
IC50 (Caspase-1 activity [1]): 0.54 nM
Dmax (NEK7; read-out: NEK7 NanoBiT Dmax): 92%
Dmax (NEK7; [4]): > 75%
DC50 (NEK7; read-out: NEK7 NanoBiT DC50): 3 nM
DC50 (NEK7; [5]): ≤ 100 nM
EC50 (CRBN-DDB1): 80 nM
EC50 (CRBN-DDB1; HTRF class, Cereblon binding): ≤ 100 nM

Cc1nnc(C(C)(C)C(=O)NCc2cc(Cl)c(C3CCC(=O)NC3=O)c(Cl)c2)o1 (stereo not drawn) [Compound 110]
IC50 (IL-1β release): 9.87 nM
IC50 (Caspase-1 activity [1]): 11.2 nM
Dmax (NEK7; read-out: NEK7 NanoBiT Dmax): 76%
Dmax (NEK7; [4]): > 75%
DC50 (NEK7; read-out: NEK7 NanoBiT DC50): 50 nM
DC50 (NEK7; [5]): ≤ 100 nM
EC50 (CRBN-DDB1): 320 nM
EC50 (CRBN-DDB1; HTRF class, Cereblon binding): 100 to 1000 nM

Cc1cnc(C(C)(C)C(=O)NCc2cc(Cl)c(C3CCC(=O)NC3=O)c(Cl)c2)cn1 (stereo not drawn) [Compound 162]
IC50 (IL-1β release): 2.03 nM
IC50 (Caspase-1 activity [1]): 1.66 nM
Dmax (NEK7; read-out: NEK7 NanoBiT Dmax): 86%
Dmax (NEK7; [4]): > 75%
DC50 (NEK7; read-out: NEK7 NanoBiT DC50): 13 nM
DC50 (NEK7; [5]): ≤ 100 nM
EC50 (CRBN-DDB1): 290 nM
EC50 (CRBN-DDB1; HTRF class, Cereblon binding): 100 to 1000 nM

CC(C)(C(=O)NCc1cc(Cl)c(C2CCC(=O)NC2=O)c(Cl)c1)c1ncc(C(F)F)cn1 (stereo not drawn) [Compound 181, N-(3,5-dichloro-4-(2,6-dioxopiperidin-3-yl)benzyl)-2-(5-(difluoromethyl)pyrimidin-2-yl)-2-methylpropanamide]
IC50 (IL-1β release): 1.96 nM
IC50 (Caspase-1 activity [1]): 1.95 nM
Dmax (NEK7; read-out: NEK7 NanoBiT Dmax): 93%
Dmax (NEK7; [4]): > 75%
DC50 (NEK7; read-out: NEK7 NanoBiT DC50): 5 nM
DC50 (NEK7; [5]): ≤ 100 nM
EC50 (CRBN-DDB1): 190 nM
EC50 (CRBN-DDB1; HTRF class, Cereblon binding): 100 to 1000 nM

CC(C)(C(=O)NCc1cc(Cl)c(C2CCC(=O)NC2=O)c(Cl)c1)c1ccc(C2CC2)nn1 (stereo not drawn) [Compound 192]
IC50 (IL-1β release): 0.94 nM
IC50 (Caspase-1 activity [1]): 0.75 nM
Dmax (NEK7; read-out: NEK7 NanoBiT Dmax): 92%
Dmax (NEK7; [4]): > 75%
DC50 (NEK7; read-out: NEK7 NanoBiT DC50): 5 nM
DC50 (NEK7; [5]): ≤ 100 nM
EC50 (CRBN-DDB1): 90 nM
EC50 (CRBN-DDB1; HTRF class, Cereblon binding): ≤ 100 nM

C[C@]12C=CC(=O)C=C1CC[C@@H]1[C@@H]2[C@@H](O)C[C@@]2(C)[C@H]1CC[C@]2(O)C(=O)CO [prednisolone]
CD31 staining in bone tissue [2]: improvement
joint swelling induced by intra-articular MSU injection [2]: improvement

CCN1CCC(S(=O)(=O)NC(=O)Nc2c3c(cc4c2CCC4)CCC3)CC1 [selnoflast, reference compound]
CD31 staining in bone tissue [2]: improvement
joint swelling induced by intra-articular MSU injection [2]: improvement
Caspase-1 activity Imax (Caspase-1 activity [3]): 89%
IC50 (Caspase-1 activity [3]; Homo sapiens, Macrophage): 843 nM
IL-1β Imax (IL-1β): 79%
IC50 (IL-1β; Homo sapiens, Macrophage): 746 nM
